Results from ChEMBL document CHEMBL1201862, “PubChem BioAssay data set” (2004).
Activity calls are given as the source filed them.

Tests used:
[1] = Luminescence Cell-Based Dose Response HTS to Identify Inhibitors of 5'UTR Stem-Loop Driven Prion Protein mRNA Translation in H4 Neuroglioblastoma Cells. [Related pubchem assays: 1827 (Project Summary), 1813 (Primary HTS)]; type: functional
[2] = target: T1, Heat shock factor protein 1 (Mus musculus, UniProt P38532); test: decrease of HSF1-responsive luciferase luminescence – cell-based, NIH3T3, dose retest, confirmation (AID 2382); type: functional;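 also: NIH3T3 fibroblasts with HSF1-driven luciferase reporter stressed by proteasome inhibitor MG132; luminescence from HSF1-driven luciferase expression after 8 hours of MG132 stress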
T1 sequence (P38532 whole entry): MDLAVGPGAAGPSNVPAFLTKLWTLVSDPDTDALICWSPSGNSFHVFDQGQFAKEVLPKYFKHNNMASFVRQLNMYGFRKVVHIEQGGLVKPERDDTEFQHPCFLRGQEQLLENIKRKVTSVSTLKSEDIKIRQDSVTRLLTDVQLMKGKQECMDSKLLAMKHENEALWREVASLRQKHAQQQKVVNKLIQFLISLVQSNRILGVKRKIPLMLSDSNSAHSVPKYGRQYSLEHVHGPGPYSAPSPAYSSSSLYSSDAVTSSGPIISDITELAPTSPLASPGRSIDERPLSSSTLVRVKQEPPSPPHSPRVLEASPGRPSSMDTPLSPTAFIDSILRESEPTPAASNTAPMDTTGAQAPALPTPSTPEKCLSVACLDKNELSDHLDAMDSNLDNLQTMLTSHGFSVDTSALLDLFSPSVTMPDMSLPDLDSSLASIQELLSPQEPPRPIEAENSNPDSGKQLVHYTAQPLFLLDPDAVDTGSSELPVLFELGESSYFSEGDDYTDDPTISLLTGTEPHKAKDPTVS

[3] = luciferase reporter signal suppression in cells – H4 neuroglioma cells, luminescence, dose response (AID 1990); type: functional, cell-based
[4] = tested on: HEK293; test: EBV LMP1 TES2 canonical NF-kB signalling blockers – cell-based, HEK293, luciferase, cherry-pick, dose response (AID 588343); type: functional; settings: Homo sapiens
[5] = alpha-synuclein stem-loop luciferase translation blockers – H4 neuroglioma cells, luminescence, confirmation (AID 1988); type: functional, cell-based
[6] = target: T2, Corticotropin-releasing factor receptor 2/Corticotropin-releasing factor-binding protein (Homo sapiens, UniProt P24387+Q13324); test: Dose Response confirmation of uHTS hits for small molecule antagonists of the CRF-binding protein and CRF-R2 receptor complex.; type: functional; settings: read-out: IC50_Mean
T2 sequence (Q13324 whole entry): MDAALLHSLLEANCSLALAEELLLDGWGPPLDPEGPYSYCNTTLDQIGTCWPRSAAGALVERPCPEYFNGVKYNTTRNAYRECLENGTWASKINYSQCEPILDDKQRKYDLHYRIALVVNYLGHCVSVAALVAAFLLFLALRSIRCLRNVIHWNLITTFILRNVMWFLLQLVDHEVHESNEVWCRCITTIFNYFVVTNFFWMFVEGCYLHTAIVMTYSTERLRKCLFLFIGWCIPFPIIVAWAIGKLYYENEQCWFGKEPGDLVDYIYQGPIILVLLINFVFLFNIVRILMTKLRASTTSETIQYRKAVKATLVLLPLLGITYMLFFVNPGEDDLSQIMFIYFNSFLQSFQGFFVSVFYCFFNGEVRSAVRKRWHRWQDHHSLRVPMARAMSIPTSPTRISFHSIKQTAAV
T2 sequence (P24387 whole entry): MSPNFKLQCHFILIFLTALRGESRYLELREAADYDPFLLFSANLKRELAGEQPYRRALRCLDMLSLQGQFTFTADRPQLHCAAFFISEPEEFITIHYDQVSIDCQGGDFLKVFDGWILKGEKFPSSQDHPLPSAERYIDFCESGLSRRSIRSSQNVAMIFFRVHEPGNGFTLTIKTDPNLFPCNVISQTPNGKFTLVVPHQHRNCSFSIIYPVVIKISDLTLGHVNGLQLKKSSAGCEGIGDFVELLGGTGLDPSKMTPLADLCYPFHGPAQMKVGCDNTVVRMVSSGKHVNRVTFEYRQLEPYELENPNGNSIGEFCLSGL

[7] = blockers of CRF-binding protein–CRF-R2 complex – cell-based, uHTS hits, 384-well, dose response (AID 651639); type: functional, Homo sapiens; settings: read-out: IC50_Mean
[8] = target: T2, Corticotropin-releasing factor receptor 2/Corticotropin-releasing factor-binding protein; test: activators of CRF receptor 2 with binding protein – uHTS hits, confirmation (AID 602473); type: functional; settings: read-out: EC50_Mean
[9] = target: T3, Adenosylmethionine-8-amino-7-oxononanoate aminotransferase (Mycobacterium tuberculosis, UniProt P9WQ81); test: Mycobacterium tuberculosis BioA enzyme inhibitor Measured in Biochemical System Using Plate Reader - 2163-02_Inhibitor_Dose_CherryPick_Activity.; type: functional, Mycobacterium tuberculosis UT205
T3 sequence (P9WQ81 whole entry): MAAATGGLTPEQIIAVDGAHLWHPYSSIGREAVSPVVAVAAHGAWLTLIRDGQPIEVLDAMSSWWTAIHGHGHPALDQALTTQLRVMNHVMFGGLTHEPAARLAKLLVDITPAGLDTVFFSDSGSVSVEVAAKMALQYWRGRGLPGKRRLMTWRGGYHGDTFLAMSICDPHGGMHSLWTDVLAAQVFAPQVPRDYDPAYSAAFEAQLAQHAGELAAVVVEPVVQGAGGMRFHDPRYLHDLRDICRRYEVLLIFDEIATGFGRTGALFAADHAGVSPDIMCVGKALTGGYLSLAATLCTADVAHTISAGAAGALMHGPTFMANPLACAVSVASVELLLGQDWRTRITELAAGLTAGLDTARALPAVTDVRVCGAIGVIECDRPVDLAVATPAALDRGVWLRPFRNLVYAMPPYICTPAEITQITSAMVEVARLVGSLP

[10] = target: T4, Sentrin-specific protease 6 (Homo sapiens, UniProt Q9GZR1); type: functional;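 also: Luminescence-based dose-response confirmatory assay of SENP6 inhibition, following up an ultra-high-throughput screen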
T4 sequence (Q9GZR1 whole entry): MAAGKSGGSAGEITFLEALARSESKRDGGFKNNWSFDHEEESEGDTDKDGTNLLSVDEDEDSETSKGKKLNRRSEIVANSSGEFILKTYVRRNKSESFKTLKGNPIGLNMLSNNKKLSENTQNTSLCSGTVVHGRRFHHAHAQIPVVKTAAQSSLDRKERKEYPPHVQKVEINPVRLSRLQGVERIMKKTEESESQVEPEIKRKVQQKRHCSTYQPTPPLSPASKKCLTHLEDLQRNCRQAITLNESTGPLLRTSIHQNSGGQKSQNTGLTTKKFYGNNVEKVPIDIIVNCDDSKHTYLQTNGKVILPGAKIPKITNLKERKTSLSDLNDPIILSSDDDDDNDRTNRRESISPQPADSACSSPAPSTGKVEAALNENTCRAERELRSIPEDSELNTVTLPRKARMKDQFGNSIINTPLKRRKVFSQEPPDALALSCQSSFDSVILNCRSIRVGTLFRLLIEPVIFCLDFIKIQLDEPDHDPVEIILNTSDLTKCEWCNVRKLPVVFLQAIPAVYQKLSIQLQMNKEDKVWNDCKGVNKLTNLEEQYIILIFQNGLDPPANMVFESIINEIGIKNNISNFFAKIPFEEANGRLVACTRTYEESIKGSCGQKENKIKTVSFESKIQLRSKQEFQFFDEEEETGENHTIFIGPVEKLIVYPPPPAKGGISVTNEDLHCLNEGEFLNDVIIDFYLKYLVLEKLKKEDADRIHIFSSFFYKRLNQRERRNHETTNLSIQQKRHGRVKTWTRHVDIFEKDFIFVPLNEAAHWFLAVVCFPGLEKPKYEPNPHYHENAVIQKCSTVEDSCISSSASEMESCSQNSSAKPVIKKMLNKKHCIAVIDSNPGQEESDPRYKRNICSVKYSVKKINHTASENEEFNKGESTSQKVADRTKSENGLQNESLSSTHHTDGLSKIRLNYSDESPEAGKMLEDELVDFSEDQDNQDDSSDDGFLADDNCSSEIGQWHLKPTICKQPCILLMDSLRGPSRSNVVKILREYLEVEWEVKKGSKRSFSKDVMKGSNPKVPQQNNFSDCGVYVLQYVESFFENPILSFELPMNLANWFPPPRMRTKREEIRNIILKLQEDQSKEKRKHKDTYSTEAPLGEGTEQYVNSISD

[11] = target: T5, Sentrin-specific protease 7 (Homo sapiens, UniProt Q9BQF6); type: functional;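 also: Luminescence-based dose-response confirmation of ultra-high-throughput screening hits, measuring inhibition of SENP7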
T5 sequence (Q9BQF6 whole entry): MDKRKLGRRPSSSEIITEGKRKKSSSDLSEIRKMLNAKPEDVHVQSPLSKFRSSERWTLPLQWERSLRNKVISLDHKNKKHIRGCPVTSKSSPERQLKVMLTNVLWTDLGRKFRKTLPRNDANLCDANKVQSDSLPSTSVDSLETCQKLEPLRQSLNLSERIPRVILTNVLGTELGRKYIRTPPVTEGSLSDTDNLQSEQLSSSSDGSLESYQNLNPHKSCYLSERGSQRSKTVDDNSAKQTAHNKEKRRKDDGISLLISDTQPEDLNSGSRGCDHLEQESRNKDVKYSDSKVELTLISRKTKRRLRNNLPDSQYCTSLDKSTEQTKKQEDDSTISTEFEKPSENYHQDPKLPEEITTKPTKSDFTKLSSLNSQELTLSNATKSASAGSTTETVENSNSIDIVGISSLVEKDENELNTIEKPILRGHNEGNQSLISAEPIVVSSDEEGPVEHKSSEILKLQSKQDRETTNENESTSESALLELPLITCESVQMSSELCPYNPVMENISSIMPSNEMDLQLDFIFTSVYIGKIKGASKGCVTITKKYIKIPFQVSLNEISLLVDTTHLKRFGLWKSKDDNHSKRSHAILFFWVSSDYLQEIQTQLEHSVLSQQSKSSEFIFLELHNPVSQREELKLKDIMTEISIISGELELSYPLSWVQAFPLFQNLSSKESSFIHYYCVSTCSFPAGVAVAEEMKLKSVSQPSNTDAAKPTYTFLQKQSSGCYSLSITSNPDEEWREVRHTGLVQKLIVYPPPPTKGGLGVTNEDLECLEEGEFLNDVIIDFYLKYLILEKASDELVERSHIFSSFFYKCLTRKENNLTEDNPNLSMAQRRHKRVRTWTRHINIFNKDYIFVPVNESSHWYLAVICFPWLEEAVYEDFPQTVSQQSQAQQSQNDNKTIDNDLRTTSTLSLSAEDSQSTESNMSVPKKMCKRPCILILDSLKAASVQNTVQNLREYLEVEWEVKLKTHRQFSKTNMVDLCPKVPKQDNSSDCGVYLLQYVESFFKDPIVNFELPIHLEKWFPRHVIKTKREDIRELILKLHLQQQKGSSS

[12] = target: T6, Sentrin-specific protease 8 (Homo sapiens, UniProt Q96LD8); type: functional;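 also: luminescence read-out of SENP8 inhibition, dose-response confirmation following an ultra-high-throughput screen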
T6 sequence (Q96LD8 whole entry): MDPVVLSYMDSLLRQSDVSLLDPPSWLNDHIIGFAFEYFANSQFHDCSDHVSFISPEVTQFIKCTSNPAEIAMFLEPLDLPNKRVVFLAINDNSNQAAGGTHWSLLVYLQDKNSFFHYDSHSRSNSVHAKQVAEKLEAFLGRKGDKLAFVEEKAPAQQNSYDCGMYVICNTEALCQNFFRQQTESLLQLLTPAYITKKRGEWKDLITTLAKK

[13] = target: T7, Caspase-3 (Homo sapiens, UniProt P42574); type: functional;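 also: Dose-response selectivity test against caspase-3 for candidate inhibitors of sentrin-specific proteases (SENPs)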
T7 sequence (P42574 whole entry): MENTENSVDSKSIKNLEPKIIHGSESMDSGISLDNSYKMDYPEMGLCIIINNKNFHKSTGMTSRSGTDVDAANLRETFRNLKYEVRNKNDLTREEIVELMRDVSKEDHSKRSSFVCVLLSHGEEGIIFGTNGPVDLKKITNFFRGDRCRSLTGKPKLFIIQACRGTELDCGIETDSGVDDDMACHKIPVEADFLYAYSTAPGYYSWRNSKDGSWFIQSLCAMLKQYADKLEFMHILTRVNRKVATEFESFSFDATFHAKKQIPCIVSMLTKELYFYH

[14] = cells; type: functional, cell-based
[15] = target: Heat shock protein HSP 90-alpha (Homo sapiens, UniProt P07900); type: functional, organism-based
[16] = viability of uninfected HEp-2 cells – cell-based, HTS, cytotoxicity control for RSV inhibitor project, dose response (AID 2410); type: functional; settings: human respiratory syncytial virus

SMILES: CC1CCc2nc(N)c(C#N)c(-c3cccnc3)c2C1 (stereo not drawn)
- EC50 [1]: 7.72 µM (active)
- EC50 [2]: 1.83 µM (active)
- EC50 [3]: 21.9 µM (active)
- AC50 [4]: 9.95 µM (active)
- EC50 [5]: > 120 µM (not active)

SMILES: COc1ccc(NC(=O)CN(C)C(=O)C2=COCCO2)cc1
- IC50 [6]: < 0.368 µM (active)
- IC50 [7]: > 20 µM (inactive)
- EC50 [8]: > 53 µM (inactive)

SMILES: Cn1ncc2cc3c(Nc4ccc(Cl)cc4)cccc3nc21
- AC50 [9]: 5.67 µM (active)

SMILES: Cc1nn(-c2ccccc2)c(N)c1Sc1ccc([N+](=O)[O-])cc1
- IC50 [6]: < 0.368 µM (active)
- IC50 [7]: 12.8 µM (active)
- EC50 [8]: > 53 µM (inactive)

SMILES: CCOC(=O)c1sc(NC(=O)c2ccc(C)s2)cc1C
- IC50 [10]: > 100 µM (inactive)
- IC50 [11]: 4.46 µM (active)
- IC50 [12]: > 100 µM (inactive)
- IC50 [13]: 20.3 µM (active)

SMILES: O=C(Nc1ncc2c(n1)CC(c1ccco1)CC2=O)c1ccccc1 (stereo not drawn)
- AC50 [9]: 0.657 µM (active)
- EC50 [14]: > 350 µM (not active)

SMILES: O=C(N[C@H]1CC[C@@H](CCn2cc(-c3cccnc3)nn2)O[C@@H]1CO)c1ccccc1F
- AC50 [9]: 11.7 µM (active)

SMILES: COC(=O)C1CCN(C2CC(=O)N(c3cc(C)cc(C)c3)C2=O)CC1 (stereo not drawn)
- AC50 [15]: 7.09 µM (active)

SMILES: CCC(CO)Oc1cc(NC(=O)c2cccc(F)c2)c2ncn(C(C)C)c2c1 (stereo not drawn)
- AC50 [9]: 5 µM (active)

SMILES: CC1=NN(C(N)=S)C(=O)C1N=Nc1ccccc1 (stereo not drawn)
- IC50 [10]: 21.6 µM (active)
- IC50 [11]: 5.13 µM (active)
- IC50 [12]: > 100 µM (inactive)
- IC50 [13]: 3.7 µM (active)

SMILES: O=C(O)CC/C(=N/Nc1ccc([N+](=O)[O-])cc1)C(=O)O
- AC50 [15]: 4.79 µM (active)

SMILES: CCS(=O)(=O)Nc1cccc(-c2cc(-c3ccccc3)c3cc(C)ccc3n2)c1
- CC50 [16]: 12 µM (active)
- AC50 [15]: 4.3 µM (active)
